According to patent US20230348561A1, “DOMINANT NEGATIVE TGFBETA RECEPTOR POLYPEPTIDES, CD8 POLYPEPTIDES, CELLS, COMPOSITIONS, AND METHODS OF USING THEREOF” (IMMATICS US, INC., priority 2022, published 2023):

How the values were obtained:
UACC257-RFP tumor cells = assay: Tumor death assays with TGF-β1/galunisertib and serial tumor challenges (IncuCyte); format: cell-based; conditions: TCR-only effector cells, E:T 5:1; TGF-β1 8 or 128 ng/mL; GAL 5 μM
Method: Cells prepared as in Example 17 were thawed, washed, and resuspended in TexMACS medium supplemented with 5% by volume human AB serum (“Complete TexMACS”). Benzonase nuclease was added to a concentration of 50 U/mL and the cells were incubated (rested) overnight in tissue culture-treated flasks at 37° C.
UACC257 tumor cells were harvested using 0.05% trypsin, washed, and counted. Red fluorescent protein (RFP)-labeled tumor cells (“UACC257-RFP”) were plated at 5,000 to 10,000 per well in a flat-bottomed 96-well plate in 100 μL of Complete TexMACS. Plates were placed in an incubator at 37° C. UACC257 cells express high levels of the antigen PRAME (preferentially expressed antigen in melanoma).
Transduced cells (effector) and tumor cells (target) were co-cultured in 96 well tissue culture plates. Effector/target co-culture plates were placed into an IncuCyte ZOOM imager at 37° C. and 5% CO2 and imaged every 2 hours for the duration of 3 to 12 days. Data was exported from the IncuCyte ZOOM software into Microsoft Excel and GraphPad Prism for further analysis. Fold tumor growth (RFP+ cell count) was normalized to 0 hr timepoint.
TCR-only transduced cells from one donor (prepared as in Example 17) were co-cultured with UACC257 tumor cells, as described in Example 20, at an effector:target (E:T) ratio of 5:1. […]

effector T cells = assay: CellTrace proliferation assay of effector T cells co-cultured with UACC257; format: cell-based, human; conditions: TCR-only effector cells, E:T 5:1; TGF-β1 2-128 ng/mL; GAL 5 μM; 3 days
Method: Transduced cells from one donor (prepared as in Example 17) were thawed, washed, and resuspended in TexMACS medium supplemented with 5% by volume human AB serum (“Complete TexMACS”). Benzonase nuclease was added to a concentration of 50 U/mL and the cells were incubated (rested) overnight in tissue culture-treated flasks at 37° C.
UACC257 tumor cells were harvested using 0.05% trypsin, washed, and counted. Red fluorescent protein (RFP)-labeled tumor cells were plated at 5,000 tumor cells per well in 100 μL in triplicate in a 96-well plate in Complete TexMACS. Plates were placed in an incubator at 37° C.
On the day of co-culture, effector T cells were counted, washed, and resuspended in PBS containing a CellTrace Violet proliferation dye at 1:1000 dilution (1 μL dye per mL PBS) and incubated for 20 minutes at 37° C. […]
Labeled effector T cells were then washed, counted, and resuspended in Complete TexMACS and added in 1 mL per well to previously prepared tumor targets for a total of 2 mL per well at an effector:target (E:T) ratio of 5:1. […]
UACC257 tumor cells were harvested using 0.05% trypsin, washed, and counted. […]
On the day of co-culture, cells from two donors prepared and sorted as in Example 19 were counted, washed, and resuspended in PBS containing a CellTrace Violet proliferation dye at 1:1000 dilution (1 μL dye per mL PBS) and incubated for 20 minutes at 37° C. […]

pSMAD2/3 = assay: Phospho-SMAD intracellular staining assay; format: cell-based, human; conditions: 5 ng/mL TGFβ; vs non-transduced cells
Method: SMAD is a signal transducer in the TGFβ signaling pathway. SMAD is phosphorylated in response to binding of TGFβ to its receptor and facilitates expression of TGFβ-responsive genes.
Non-transduced cells and cells expressing dnTGFβvar1 or dnTGFβvar2 (prepared as in Example 17) were thawed and washed in TexMACS medium supplemented with 5% by volume human AB serum (“Complete TexMACS”). They were subsequently resuspended in unsupplemented TexMACS to rest under serum starvation overnight at 37° C. After overnight rest, effector cells were counted and the concentration was adjusted as necessary and 100 μL aliquots were added into a flat-bottomed 96-well tissue culture plate. To avoid stimulating SMAD phosphorylation from the manipulation of cells during counting/plating, cells were further rested about 2 hours in serum-free TexMACS at 37° C.
After 2 hours, 50 μL of a 3× solution of TGF-β1 (15 ng/mL) and/or GAL (15 μM) was added to the plated effector cells for final 1× concentrations of 5 ng/mL TGF-β1 and/or 5 μM GAL, respectively. For untreated cells, 50 μL of untreated medium was added. […]
Following permeabilization, cells were washed twice with Flow Buffer (PBS, 1% FBS, 0.1% sodium azide). […] Cytometry data files were analyzed in FlowJo. pSMAD+ percentages were reported as a proportion of all live lymphocytes. […]

In the case of Cc1cccc(-c2nn3c(c2-c2ccnc4ccc(C(N)=O)cc24)CCC3)n1 [GAL, Galunisertib], the “tumor fold growth of UACC257-RFP cells” value (UACC257-RFP tumor cells) is reported as “rescues or enhances ability of effector cells to kill tumor cells” and the “Division Index / proliferation of effector T cells” value (effector T cells) is reported as “rescued”.

“TGF-β1: exogenous cytokine added to co-cultures” was tested, and the “tumor fold growth of UACC257-RFP cells” value (UACC257-RFP tumor cells) was “reduced the anti-tumor cytotoxicity of the effector cells” and the “Division Index / proliferation of effector T cells” value (effector T cells) was “suppresses proliferation of effector T cells”.

B1: dnTGFβRIIvar1: dominant negative TGFβRII variant 1, SEQ ID NO: 305, encoded by SEQ ID NO: 306; lentiviral vector SEQ ID NO: 312 (protein)
chain: MGRGLLRGLWPLHIVLWTRIASTIPPHVQKSDVEMEAQKDEIICPSCNRTAHPLRHINNDMIVTDNNGAVKFPQLCKFCDVRFSTCDNQKSCMSNCSITSICEKPQEVCVAVWRKNDENITLETVCHDPKLPYHDFILEDAASPKCIMKEKKKPGETFFMCSCSSDECNDNIIFSEEYNTSNPDLLLVIFQVTGISLLPPLGVAISVIIIFYCYRVNRQQKLSS
modifications: Dominant Negative TGFbetaRII var1 Amino Acid Sequence
With B1 the “percentage of all lymphocytes positive for pSMAD” value (pSMAD2/3) was “reduced phosphorylated SMAD”.

B2: dnTGFβRIIvar2: dominant negative TGFβRII variant 2, SEQ ID NO: 307, encoded by SEQ ID NO: 308; lentiviral vector SEQ ID NO: 313 (protein)
chain: MGRGLLRGLWPLHIVLWTRIASTIPPHVQKSVNNDMIVTDNNGAVKFPQLCKFCDVRFSTCDNQKSCMSNCSITSICEKPQEVCVAVWRKNDENITLETVCHDPKLPYHDFILEDAASPKCIMKEKKKPGETFFMCSCSSDECNDNIIFSEEYNTSNPDLLLVIFQVTGISLLPPLGVAISVIIIFYCYRVNRQQKLSS
modifications: Dominant Negative TGFbetaRII var2 Amino Acid Sequence
In the case of B2, the “percentage of all lymphocytes positive for pSMAD” value (pSMAD2/3) is reported as “reduced phosphorylated SMAD”.
